Test system: colon cancer cell line DLD-1
Assay: Cell viability assay (CellTiter-Glo) and combination effect analysis of leptomycin B plus co-agent
Format: cell-based, Human
Settings: combination with leptomycin B, DLD-1 cells, average CI over fraction affected 0.2 to 0.9; for Combination Index, LMB First: 24 hours of LMB, then drug added and incubated for 48 hours; for Combination Index, Co-Agent First: drug alone for 24 hours followed by addition of LMB for 48 hours; for Combination Index, Simultaneous: simultaneous exposure to LMB and drug for 72 hours, constant ratio of IC50s
Procedure: The efficacy of a combination of leptomycin B and specific chemotherapeutic co-agents was determined. The additive, synergistic, or antagonistic effect of the combination of leptomycin B and a co-agent was calculated for each administration regimen using Calcusyn software (Biosoft, Cambridge, United Kingdom). This software calculates a combination index using the following algorithm: CI=[D]1/[Dx]1+[D]2/[Dx]2 where • CI is the combination index; • [D]1 and [D]2 are the concentrations of the two agents being tested (i.e., LMB and the co-agent) that, in combination provide a response of x % in the assay; and • [Dx]1 and [Dx]2 are the concentrations of the two agents that, when used alone, produce a response of x % in the assay.
A CI value of one means the combined effect of the two agents is additive. A CI value of less than one means that the two agents act synergistically. A CI value of greater than one means that the two agents act antagonistically.
The area under the curve where the fraction affected of cells (FA) ranged from 0.2 to 0.9 was calculated, to generate average CI values as shown in Table 1 for colon cancer cell line DLD-1.
Human colon adenocarcinoma cell line, DLD-1, was obtained from American Type Culture Collection (Manassas, Va.). […] Leptomycin B was produced by fermentation of a high producing isolate from Streptomyces sp. […] LMB is also available from commercial sources, such as Sigma-Aldrich. Other anti-cancer agents were either purchased commercially (e.g., from Sigma Chemical Co. (St. Louis, Mo.) or from Sequoia Research Products (Oxford, UK)).
Cells were seeded in duplicate in 96-well microtiter plates at a density of 4,000 cells per well and allowed to attach overnight. Cells were treated with LMB and the corresponding cytotoxic drug at varying concentrations, ranging from 0.5 picomolar (“pM”) to 50 micromolar (“μM”), for 3 days. Cell viability was determined using the CellTiter-Glo luminescent cell viability assay (Promega). For the drug combination assay, cells were seeded in duplicate in 96-well plates (4,000 cells/well). […] Based on the IC50 values of each individual drug, combined drug treatment was designed at constant ratios of two drugs, i.e., equivalent to the ratio of their IC50. Three treatment schedules were used: The first schedule used simultaneous exposure to both LMB and drug for 72 hours. In the second schedule, the cells were exposed to 24 hours of LMB. The drug was then added to the cells and incubated for 48 hours. In the third schedule, cells were exposed to the drug alone for 24 hours followed by addition of LMB for 48 hours. Cell viability was determined by the CellTiter-Glo luminescent cell viability assay. Synergism, additivity, or antagonism was determined by median effect analysis using the combination index (CI) calculated using Calcusyn (Biosoft, Cambridge, UK), as described above.

SMILES: C=CCNC1=C2C[C@@H](C)C[C@H](OC)[C@H](O)[C@@H](C)/C=C(\C)[C@H](OC(N)=O)[C@@H](OC)/C=C\C=C(/C)C(=O)NC(=CC1=O)C2=O [17-AAG, 17-allylamino-17-demethoxygeldanamycin]
- Combination Index, LMB First: 1.13 ± 0.05
- Combination Index, Co-Agent First: 0.91 ± 0.09
- Combination Index, Simultaneous: 1.15 ± 0.06

SMILES: CCC1(c2ccc(N)cc2)CCC(=O)NC1=O (stereo not drawn) [Aminoglutethimide, aminoglutethimide]
- Combination Index, LMB First: 0.82 ± 0.05
- Combination Index, Co-Agent First: 1.02 ± 0.18
- Combination Index, Simultaneous: 0.89 ± 0.07

SMILES: CC(O)(CS(=O)(=O)c1ccc(F)cc1)C(=O)Nc1ccc(C#N)c(C(F)(F)F)c1 (stereo not drawn) [Bicalutamide, bicalutamide]
- Combination Index, LMB First: 1.48 ± 0.32
- Combination Index, Co-Agent First: 1.05 ± 0.02
- Combination Index, Simultaneous: 1.02 ± 0.01

SMILES: CC(=O)O[C@@]12CO[C@@H]1C[C@H](O)[C@@]1(C)C(=O)[C@H](O)C3=C(C)[C@@H](OC(=O)[C@H](O)[C@@H](NC(=O)OC(C)(C)C)c4ccccc4)C[C@@](O)([C@@H](OC(=O)c4ccccc4)[C@H]21)C3(C)C [Docetaxel, docetaxel]
- Combination Index, LMB First: 1.06 ± 0.04
- Combination Index, Co-Agent First: 0.95 ± 0.07
- Combination Index, Simultaneous: 1.19 ± 0.14

SMILES: COc1cccc2c1C(=O)c1c(O)c3c(c(O)c1C2=O)C[C@@](O)(C(=O)CO)C[C@@H]3O[C@H]1C[C@H](N)[C@H](O)[C@H](C)O1 [Doxorubicin, doxorubicin]
- Combination Index, LMB First: 0.96 ± 0.05
- Combination Index, Co-Agent First: 0.89 ± 0.01
- Combination Index, Simultaneous: 0.84 ± 0.12

SMILES: C/C1=C/C[C@@H](/C(C)=C/c2csc(C)n2)OC(=O)C[C@H](O)C(C)(C)C(=O)[C@H](C)[C@@H](O)[C@@H](C)CCC1 [Epo D, epothilone D]
- Combination Index, LMB First: 1.05 ± 0.03
- Combination Index, Co-Agent First: 0.92 ± 0.05
- Combination Index, Simultaneous: 1.06 ± 0.10

SMILES: Nc1ccn([C@@H]2O[C@H](CO)[C@@H](O)C2(F)F)c(=O)n1 [Gemcitabine, gemcitabine]
- Combination Index, LMB First: 1.18 ± 0.05
- Combination Index, Co-Agent First: 0.71 ± 0.31
- Combination Index, Simultaneous: 0.97 ± 0.25

SMILES: CCc1c2c(nc3ccc(OC(=O)N4CCC(N5CCCCC5)CC4)cc13)-c1cc3c(c(=O)n1C2)COC(=O)[C@]3(O)CC [Irinotecan, irinotecan]
- Combination Index, LMB First: 0.77 ± 0.05
- Combination Index, Co-Agent First: 0.50 ± 0.001
- Combination Index, Simultaneous: 0.92 ± 0.08

SMILES: CC[C@H](C)[C@@H](COC(Cc1ccccc1)C(=O)N[C@@H](CCS(C)(=O)=O)C(=O)OC(C)C)NC[C@@H](N)CS (stereo partly drawn) [L-744832]
- Combination Index, LMB First: 0.82 ± 0.05
- Combination Index, Co-Agent First: 0.86 ± 0.11
- Combination Index, Simultaneous: 0.84 ± 0.09

SMILES: O=C(CCCCCCC(=O)Nc1ccccc1)NO [SAHA, suberoylanilide hydroxamic acid]
- Combination Index, LMB First: 0.91 ± 0.04
- Combination Index, Co-Agent First: 1.03 ± 0.11
- Combination Index, Simultaneous: 0.88 ± 0.04

Source: patent US20050203174A1, “Combination therapies using leptomycin B” (Kosan Biosciences, Inc., priority 2004, published 2005)
